In patent US7939292B2, “Modified heparinase III and methods of sequencing therewith” (Massachusetts Institute of Technology, priority 2000, dated 2011):

Experiments:
Type in all cases: biochemical, Flavobacterium heparinum
heparinase III [1] = biological target: T1, heparinase III (Pedobacter heparinus, UniProt Q59289); assay: DEPC inactivation of heparinase III (UV 232 nm activity assay)
T1 construct: compared to the native heparinase III isolated directly from Flavobacterium heparinum; purchased IBEX Technologies (Montreal, Canada), received as a gift rather than bought; host or cells: Flavobacterium heparinum (natural producer)
T1 sequence (Q59289 25-659): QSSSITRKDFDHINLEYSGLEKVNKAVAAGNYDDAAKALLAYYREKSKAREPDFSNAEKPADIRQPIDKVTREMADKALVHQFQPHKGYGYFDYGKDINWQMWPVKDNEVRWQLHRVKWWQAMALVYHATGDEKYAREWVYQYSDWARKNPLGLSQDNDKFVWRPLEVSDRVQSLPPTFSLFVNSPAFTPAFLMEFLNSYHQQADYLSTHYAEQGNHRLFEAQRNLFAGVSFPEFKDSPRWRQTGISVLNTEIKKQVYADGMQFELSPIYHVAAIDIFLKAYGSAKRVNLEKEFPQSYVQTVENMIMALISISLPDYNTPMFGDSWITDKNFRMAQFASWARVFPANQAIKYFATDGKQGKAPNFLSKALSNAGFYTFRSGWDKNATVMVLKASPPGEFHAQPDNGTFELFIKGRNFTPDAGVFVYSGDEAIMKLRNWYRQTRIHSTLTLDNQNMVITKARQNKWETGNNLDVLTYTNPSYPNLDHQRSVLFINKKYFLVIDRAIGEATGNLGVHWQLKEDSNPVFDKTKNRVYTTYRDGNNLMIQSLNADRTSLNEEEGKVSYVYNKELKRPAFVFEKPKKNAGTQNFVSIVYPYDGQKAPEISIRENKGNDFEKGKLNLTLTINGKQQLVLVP
Procedure: The activity of heparinase III was measured using a UV 232 nm assay similar to those reported for heparinase I and heparinase II (Godavarti, R., Cooney, C. L., Langer, R., and Sasisekharan, R. (1996) Biochemistry 35, 6846-52; Shriver, Z., Hu, Y., and Sasisekharan, R. (1998) J. Biol. Chem. 273, 10160-67; and Lohse, D. and Linhardt, R. J. (1992) J. Biol. Chem. 267, 781-87). Briefly, the increase in absorbance at 232 nm as a function of time was monitored under saturating substrate conditions. All assays were performed with heparan sulfate at a concentration of 2 mg/ml in 50 mM sodium phosphate, pH 7.6. The temperature for enzymatic activity measurements was kept constant at 35° C.
(A) DEPC Inactivation of Heparinase III. At pH values ranging from 6.0 to 8.0, heparinase III (50 μg/mL) was incubated with DEPC in 50 mM sodium phosphate buffer at 25° C. The DEPC stock solution (6.9 M) was diluted with ethanol. […] At each pH, three reactions were run using different concentrations of DEPC, ranging from 50 μM to 2.5 mM. At fixed time intervals, 25 μL aliquots were withdrawn from the reaction mixtures for the UV 232 nm activity assay.
The kinetics of DEPC inactivation of heparinase III was determined by plotting the natural log of percent activity versus an adjusted time term (to account for the decomposition of DEPC). Briefly, this adjusted time term (t′) was calculated according to the following equation: […]
In this equation, k′ is the first order rate constant for DEPC hydrolysis and t is the measured time after addition of DEPC to the heparinase III solution. At each pH, the order of the reaction in DEPC was determined by plotting the observed rate constants of inactivation at each pH vs. log [DEPC]. The slope of this graph is n, the order of the reaction with respect to DEPC (Lundblad, R. (1995) Techniques in Protein Modification, CRC Press, Boca Raton).
Heparinase III was incubated with 0.31 (□), 0.54 (●), 0.97 (◯), 1.5 (▴), 1.9 (Δ) mM DEPC at pH 6.5 and at 25° C. (shown in inset of FIG. 1). […]

heparinase III [2] = biological target: T1, heparinase III; assay: Substrate protection of heparinase III against DEPC inactivation; conditions: 2 mg/mL heparan sulfate 30 min before 1.5 mM DEPC
Procedure: (C) Substrate Protection of Heparinase III against DEPC Inactivation. Heparinase III (50 μg/mL) was pre-incubated with 2 mg/mL heparan sulfate in 50 mM sodium phosphate, pH 7.6 for 30 minutes prior to the addition of 1.5 mM DEPC. A control reaction with no prior incubation of substrate was also completed. The time course of inactivation for both was determined using the heparinase III activity assay.
Substrate protection of heparinase III inactivation by DEPC was also assessed (FIG. 4). Heparinase III (50 μg/mL) was incubated with 2 mg/mL heparan sulfate for 30 min. 1.5 mM DEPC was added to the reaction and time course of inactivation was completed using the heparinase III activity assay (O). A control reaction without pre-incubation with heparan sulfate was also done (□).

heparinase III [3] = biological target: T1, heparinase III; assay: Quantification of histidines modified by DEPC (240 nm) with activity check
Procedure: (D) Quantification of the Number of Histidines Modified by DEPC. The extent of modification of an enzyme by DEPC can be determined by monitoring the formation of the N-carbethoxylhistidyl adduct at 240 nm. At time zero, 1.5 mM DEPC was added to the cuvette containing heparinase III in sodium phosphate buffer, pH 7.0. The change in absorbance at 240 nm was monitored every minute for 10 min. The number of modified residues was determined using a molar extinction coefficient of 3,200 M^−1cm^−1 (Lundblad, R. (1995) Techniques in Protein Modification, CRC Press, Boca Raton).
At time zero, 1.5 mM DEPC was added to a cuvette containing heparinase III (540 μg/mL) in sodium phosphate buffer, pH 7.0. The change in absorbance at 240 nm was monitored at time intervals for 10 min. The number of modified histidines was calculated using a ε=3200 M^−1cm^−1. At the beginning and end of the experiment, aliquots of heparinase III were withdrawn and tested for activity. Less than 5% of initial activity remained after 10 minutes incubation with DEPC.

heparinase III [4] = biological target: T1, heparinase III; assay: Reactivation of DEPC-modified enzyme with hydroxylamine; design: Activity (%): concentration or dose not given beside the values
Procedure: (B) Reactivation of DEPC-Modified Enzyme with Hydroxylamine. Similar to what was completed with heparinase I and II (Godavarti, R., Cooney, C. L., Langer, R., and Sasisekharan, R. (1996) Biochemistry 35, 6846-52 and Shriver, Z., Hu, Y., and Sasisekharan, R. (1998) J. Biol. Chem. 273, 10160-67), heparinase III (50 μg/mL) was incubated with 0.97 mM DEPC, pH 6.5 until its enzymatic activity was reduced to 50% of its initial value. […] The reaction was incubated at room temperature for 6 hours. Aliquots were withdrawn every hour for the activity assay. The control mixture contained no DEPC but the same concentration of hydroxylamine to account for the loss of nonspecific activity. The ratio of the activity of the reaction mixture over the activity of the control was calculated to determine recovery of enzymatic activity.

CCOC(=O)OC(=O)OCC [DEPC, diethylpyrocarbonate]
inhibition of heparinase III (heparinase III [1]): inhibit in a dose-dependent fashion
kinact/KI (heparinase III [1]; 0.31-1.9 mM DEPC, pH 6.5, 25° C., read-out: second-order rate constant of inactivation (converted)): 3.33 M⁻¹ s⁻¹
order of the reaction in DEPC (slope of kinact vs. log [DEPC]) (heparinase III [1]; pH 6.5): 1
inactivation kinetics after preincubation with heparan sulfate (heparinase III [2]): lower inactivation kinetics
histidines modified per enzyme molecule (heparinase III [3]; 1.5 mM DEPC, pH 7.0, 10 minutes): 1.8
remaining activity at 1500 µM (heparinase III [3]; after 10 minutes incubation with 1.5 mM DEPC, pH 7.0, read-out: initial activity remaining): < 5%
activity at 970 µM (heparinase III [4]; Time 0 min after hydroxylamine, 0.97 mM DEPC, pH 6.5): 51%
Activity (%) (heparinase III [4]; Time 30 min after hydroxylamine): 60%
Activity (%) (heparinase III [4]; Time 60 min after hydroxylamine): 66%
Activity (%) (heparinase III [4]; Time 90 min after hydroxylamine): 72%
Activity (%) (heparinase III [4]; Time 180 min after hydroxylamine): 76%
Activity (%) (heparinase III [4]; Time 240 min after hydroxylamine): 78%
Activity (%) (heparinase III [4]; Time 360 min after hydroxylamine): 80%
reversibility of DEPC modification (heparinase III [4]; incubation with 300 mM hydroxylamine): 90%
